The term inhibition denotes the change of the read-out against control, counted positive when it falls. Usually IC50 stands for the midpoint of a concentration-inhibition curve.

The record followed here is ChEMBL document CHEMBL3120110, “Design, synthesis, biological evaluation, and comparative docking study of 1,2,4-triazolones as CB1 receptor selective antagonists” (Eur J Med Chem, 2014).

Experiment [1] deals with T1, Cannabinoid receptor 2 (Homo sapiens, UniProt P34972). Kind of experiment: Antagonist activity at CB2 receptor (unknown origin) stably expressed in CHO cells co-expressing co-expressing Ga15/16 assessed as calcium current at 10 uM after 45 mins by fluo-4 AM assay relative to basal control. It counts as functional, cell-based.
Experiment [2] deals with T2, Cannabinoid receptor 1 (Homo sapiens, UniProt P21554). Type of experiment: functional, cell-based, CHO.
Experiment [3] addresses T2, Cannabinoid receptor 1. Conditions: CHO, at 10 µM.
The target in experiment [4] is T1, Cannabinoid receptor 2. Kind of experiment: Antagonist activity at CB2 receptor (unknown origin) stably expressed in CHO cells co-expressing co-expressing Ga15/16 assessed as calcium current after 45 mins by fluo-4 AM assay. Type of experiment: functional, cell-based.

T1 sequence (P34972 whole entry): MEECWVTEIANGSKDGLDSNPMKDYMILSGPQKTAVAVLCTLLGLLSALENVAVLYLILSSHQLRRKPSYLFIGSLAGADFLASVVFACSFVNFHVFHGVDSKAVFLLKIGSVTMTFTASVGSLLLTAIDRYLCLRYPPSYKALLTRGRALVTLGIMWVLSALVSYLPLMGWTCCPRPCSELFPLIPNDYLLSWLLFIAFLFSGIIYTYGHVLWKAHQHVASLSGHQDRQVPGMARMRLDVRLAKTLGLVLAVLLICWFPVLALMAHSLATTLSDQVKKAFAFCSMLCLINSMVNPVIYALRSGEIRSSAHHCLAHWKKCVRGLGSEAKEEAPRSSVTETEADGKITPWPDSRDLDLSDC
T2 sequence (P21554 whole entry): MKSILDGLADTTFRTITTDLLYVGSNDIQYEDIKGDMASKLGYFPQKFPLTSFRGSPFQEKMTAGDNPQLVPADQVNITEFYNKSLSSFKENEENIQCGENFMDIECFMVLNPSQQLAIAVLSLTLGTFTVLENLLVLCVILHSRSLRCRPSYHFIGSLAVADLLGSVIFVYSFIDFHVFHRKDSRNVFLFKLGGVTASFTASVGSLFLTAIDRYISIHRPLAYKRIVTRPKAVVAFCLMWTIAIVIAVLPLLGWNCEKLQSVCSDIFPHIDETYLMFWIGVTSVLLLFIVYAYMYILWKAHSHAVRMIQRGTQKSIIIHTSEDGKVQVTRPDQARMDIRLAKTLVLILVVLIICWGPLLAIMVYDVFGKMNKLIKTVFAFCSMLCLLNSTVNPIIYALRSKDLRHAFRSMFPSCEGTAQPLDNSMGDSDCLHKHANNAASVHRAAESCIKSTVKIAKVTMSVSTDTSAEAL

With `COc1ccc(-c2nn(C(=O)Nc3ccc(C)cc3)c(=O)n2-c2ccc(Cl)cc2)cc1`, the inhibition was found to be 74% on Cannabinoid receptor 2 [1] and 96.6% against Cannabinoid receptor 1 [3]. The molecule further returned an IC50 against Cannabinoid receptor 1 [2] of 2280 nM.

For `CCCCCOc1c(OC)ccc2cc(C(=O)NCc3ccc4c(c3)OCO4)c(=O)[nH]c12`, the results for the inhibition on Cannabinoid receptor 2 [1] and against Cannabinoid receptor 1 [3] were 130% and 37.6%, respectively.

As to `COc1ccc(-n2c(-c3ccc(Cl)cc3)nn(C(=O)Nc3ccc(C)cc3)c2=O)cc1`, the figures for the inhibition at Cannabinoid receptor 2 [1] and at Cannabinoid receptor 1 [3] were 85.6% and 74.6%, respectively. Also, the 50% inhibitory concentration (IC50) is 20000 nM on Cannabinoid receptor 2 [4] and 8440 nM against Cannabinoid receptor 1 [2].

For `Cc1ccc(Cn2c(-c3ccc(Cl)cc3)nn(C(=O)Nc3ccc(C)cc3)c2=O)cc1`, on Cannabinoid receptor 1 [3], the inhibition was 36.8%.

With `COc1ccc(-c2nn(C(=O)NC3CCCCC3)c(=O)n2-c2ccc(C)cc2)cc1`, the inhibition on Cannabinoid receptor 2 [1] amounted to 131%; against Cannabinoid receptor 1 [3], 98%. Moreover, the concentration for half-maximal inhibition (IC50) worked out at 4090 nM on Cannabinoid receptor 2 [4] and 1840 nM against Cannabinoid receptor 1 [2].

For `COc1ccc(-n2c(-c3ccc(Cl)cc3)nn(C(=O)NC3CCCCC3)c2=O)cc1`, the inhibition on Cannabinoid receptor 2 [1] was determined as 94%; against Cannabinoid receptor 1 [3], 98.6%. Besides, the results for the IC50 at Cannabinoid receptor 2 [4] and at Cannabinoid receptor 1 [2] were 1510 nM and 388 nM, respectively.

On to `COc1ccc(-c2nn(C(=O)NC3CCCCC3)c(=O)n2-c2ccc(Cl)cc2)cc1`, for which the results for the inhibition at Cannabinoid receptor 2 [1] and at Cannabinoid receptor 1 [3] were 124% and 96.5%, respectively. For the same molecule, the values for the IC50 on Cannabinoid receptor 2 [4] and against Cannabinoid receptor 1 [2] were 6080 nM and 878 nM, respectively.

As to `COc1ccc(-c2nn(C(=O)Nc3ccc(Cl)cc3)c(=O)n2-c2ccc(C)cc2)cc1`, the figures for the inhibition at Cannabinoid receptor 2 [1] and against Cannabinoid receptor 1 [3] were 43.6% and 90.5%, respectively. In addition, it took 4730 nM to reach half-maximal inhibition on Cannabinoid receptor 1 [2] (IC50).

In the case of `Cc1ccc(-c2nn(C(=O)NC3CCCCC3)c(=O)n2-c2ccc(Cl)cc2)cc1`, the inhibition at Cannabinoid receptor 2 [1] is 58.5%; on Cannabinoid receptor 1 [3], 98.2%. This molecule also returned an IC50 against Cannabinoid receptor 1 [2] of 2100 nM.

Take `Cc1ccc(Cn2c(-c3ccc(C)cc3)nn(C(=O)NC3CCCCC3)c2=O)cc1`: the results for the inhibition on Cannabinoid receptor 2 [1] and on Cannabinoid receptor 1 [3] were 132% and 60.9%, respectively. In addition, the IC50 on Cannabinoid receptor 2 [4] came to 5030 nM; on Cannabinoid receptor 1 [2] it was 17800 nM.

Molecule `Cc1ccc(NC(=O)n2nc(-c3ccc(C)cc3)n(-c3ccc(Cl)cc3)c2=O)cc1` returned an IC50 at Cannabinoid receptor 1 [2] of 947 nM. For the same molecule, the inhibition at Cannabinoid receptor 1 [3] came to 91.9%.

`Cc1ccc(Cn2c(-c3ccc(Cl)cc3)nn(C(=O)NC3CCCCC3)c2=O)cc1`: the inhibition at Cannabinoid receptor 2 [1] was 87.7%; against Cannabinoid receptor 1 [3], 42.6%. In addition, the IC50 at Cannabinoid receptor 2 [4] was 1930 nM.

For `Cc1ccc(Cn2c(-c3ccc(C)cc3)nn(C(=O)Nc3ccc(Cl)cc3)c2=O)cc1`, the inhibition at Cannabinoid receptor 2 [1] was found to be 29.9%; against Cannabinoid receptor 1 [3] it was 89%. This molecule also yielded an IC50 against Cannabinoid receptor 1 [2] of 3750 nM.

For the molecule `Cc1ccc(-n2c(-c3ccc(Cl)cc3)nn(C(=O)NC3CCCCC3)c2=O)cc1`, the inhibition on Cannabinoid receptor 2 [1] stood at 46.4%; against Cannabinoid receptor 1 [3], 102%. At Cannabinoid receptor 1 [2], this molecule returned an IC50 of 222 nM.
